Source: PubChem BioAssay (NCI)
“And” between values parts separate entries of the source, which are not always exact repeats. Equal values may be shown once.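 Dose response: 5 concentrations. Exposure: 48 h. Format: 96-well plates. Endpoint: linear interpolation; highest concentration if not reached. At the GI50, growth is halved. TGI denotes the concentration required for complete inhibition of growth.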

Experiments:
Test in all cases: NCI anticancer screen, dose series, 48 h
BT-549 breast = system: BT-549 breast
MDA-N = system: MDA-N
T-47D breast = system: T-47D breast
DMS 273 small cell lung = system: DMS 273 small cell lung
KM20L2 colon = system: KM20L2 colon
SNB-78 CNS = system: SNB-78 CNS
DMS 114 small cell lung = system: DMS 114 small cell lung
RXF-631 renal = system: RXF-631 renal
XF 498 CNS = system: XF 498 CNS

COc1ccc2nc3cc([N+](=O)[O-])ccc3c(NCCCN(C)C)c2c1
GI50 (BT-549 breast): 2.65 µM
TGI (BT-549 breast): 5.26 µM
GI50 (MDA-N): 0.491 µM
TGI (MDA-N): 2 µM

N#CCN/C=C\C(=O)c1ccc(Cl)cc1
GI50 (T-47D breast): 33.9 µM
TGI (T-47D breast): > 100 µM

CCN(CC)CCCNC(=O)c1c2c(n3ccccc13)C(=O)c1ncccc1C2=O
GI50 (BT-549 breast): 1.94 µM
TGI (BT-549 breast): 4.06 µM
GI50 (T-47D breast): 1.34 µM
TGI (T-47D breast): 3.61 µM

CC1(CCC(=O)OC2CCCCC2)OCCO1
TGI (MDA-N): > 100 µM
TGI (T-47D breast): > 100 µM

CNC(=O)Cc1nc(-c2cccc(NS(=O)(=O)c3c(F)cccc3F)c2F)c(-c2ccnc(Nc3ccccc3)n2)s1
GI50 (BT-549 breast): > 35.8 µM
TGI (BT-549 breast): > 50 µM
GI50 (T-47D breast): 6.23 µM
TGI (T-47D breast): > 41.1 µM

O=C1OC(O)C(Oc2c(Cl)cccc2Cl)=C1Cl (stereo not given)
TGI (DMS 273 small cell lung): 30.1 µM
TGI (KM20L2 colon): 32.9 µM
TGI (SNB-78 CNS): 94.6 µM

O=C(/C=C/c1ccccc1)n1c(-c2ccc(Cl)cc2)nc2ccccc21
GI50 (BT-549 breast): 1.67 µM
TGI (BT-549 breast): 3.22 µM
GI50 (T-47D breast): 1.73 µM
TGI (T-47D breast): 7.68 µM

CCN(CC)CCCC(C)N=C(C1=C(C(=NC(C)CCCN(CC)CC)c2cccc(OC)c2)C(=O)NC1=O)c1cccc(OC)c1 (stereo not given)
GI50 (BT-549 breast): 2.24 µM
TGI (BT-549 breast): 8.44 µM
GI50 (T-47D breast): 2.02 µM
TGI (T-47D breast): 10.4 µM

COC(=O)c1cc(O)c2c(c1C(=O)OC)C[C@H]1[C@@H]3CC=C4C[C@@H](O)CC[C@]4(C)[C@H]3CC[C@]21C
GI50 (BT-549 breast): 2.29 µM
TGI (BT-549 breast): 6.98 µM
GI50 (T-47D breast): 1.51 µM
TGI (T-47D breast): 6.91 µM

CCOC(=O)C(C)(C)Oc1ccc(/C=C/C(=O)c2ccc(Cl)cc2)cc1
TGI (DMS 114 small cell lung): 36.8 µM
TGI (DMS 273 small cell lung): 34.6 µM
TGI (KM20L2 colon): 33.7 µM
TGI (RXF-631 renal): 38.5 µM
TGI (XF 498 CNS): 39.1 µM

Cc1sc2c(c1C)C(c1ccc(Cl)cc1)=N[C@@H](CC(=O)OC(C)(C)C)c1nnc(C)n1-2
GI50 (BT-549 breast): 1.15 µM and 3.1 µM
TGI (BT-549 breast): 20.8 µM and 20 µM
GI50 (T-47D breast): 0.342 µM and 0.214 µM
TGI (T-47D breast): 18.8 µM and 19 µM

CCOC(=O)CC1C(COC(=O)NC)OC(n2cnc3c(NC(=O)Nc4ccccc4)ncnc32)C1O[Si](C)(C)C(C)(C)C (stereo not given)
GI50 (BT-549 breast): 2.07 µM
TGI (BT-549 breast): 6.71 µM
GI50 (T-47D breast): 4.95 µM
TGI (T-47D breast): 84.7 µM

CC/C(CC(=O)CCC(=O)Nc1ccccc1[N+](=O)[O-])=N/NC(=O)C[n+]1ccccc1
TGI (DMS 273 small cell lung): > 100 µM
TGI (KM20L2 colon): > 100 µM
TGI (RXF-631 renal): > 100 µM
TGI (SNB-78 CNS): > 100 µM

COc1nc(N)nc2c1ncn2C1OC(CO)C(O)C1O (stereo not given)
GI50 (BT-549 breast): > 5000 µM
TGI (BT-549 breast): > 5000 µM
GI50 (T-47D breast): > 5000 µM
TGI (T-47D breast): > 5000 µM

O=C1C=CC(=O)c2cc(Sc3ccccc3)c(=O)ccc21
TGI (BT-549 breast): 40 µM
TGI (DMS 114 small cell lung): 38.5 µM
TGI (DMS 273 small cell lung): 35.1 µM
TGI (KM20L2 colon): 38 µM
TGI (MDA-N): 33.4 µM
TGI (RXF-631 renal): 43.4 µM
TGI (SNB-78 CNS): 42.6 µM
TGI (T-47D breast): 12.5 µM

COc1ccc2c(c1)CC[C@H](O)/C2=C/c1cc(OC)c(OC)c(OC)c1
GI50 (BT-549 breast): 0.147 µM
TGI (BT-549 breast): 17.6 µM
GI50 (T-47D breast): 0.0354 µM
TGI (T-47D breast): 52.8 µM

C=C[C@@]1(O)CCCC2=C(C(=O)OCC)CC[C@]21C
TGI (DMS 114 small cell lung): > 100 µM
TGI (DMS 273 small cell lung): > 100 µM

O=Cc1cccc2c1Oc1c(cccc1C(=O)O)S2
TGI (BT-549 breast): > 100 µM
TGI (MDA-N): > 100 µM
TGI (T-47D breast): > 100 µM

O=C1C(Cl)C(c2ccccc2O)N1n1cnc2ccccc2c1=O (stereo not given)
TGI (DMS 114 small cell lung): 81.4 µM
TGI (DMS 273 small cell lung): > 100 µM
TGI (KM20L2 colon): > 100 µM
TGI (SNB-78 CNS): > 100 µM
TGI (XF 498 CNS): 17.9 µM

CC1=NN(C(=O)c2ccc([N+](=O)[O-])cc2)C(=O)C1N=Nc1ccccc1C(=O)O (stereo not given)
TGI (DMS 114 small cell lung): > 100 µM
TGI (DMS 273 small cell lung): > 100 µM
TGI (SNB-78 CNS): > 100 µM

COc1ccc(-c2c3c(n(C4OC(COC(C)=O)C(OC(C)=O)C(OC(C)=O)C4OC(C)=O)c(=S)c2C#N)CC(C)(C)CC3=O)cc1 (stereo not given)
TGI (BT-549 breast): 93.3 µM and > 100 µM
TGI (MDA-N): > 100 µM
TGI (T-47D breast): > 100 µM

O=[N+]([O-])C1Cc2ccccc2OC1c1ccccc1 (stereo not given)
TGI (DMS 273 small cell lung): > 100 µM
TGI (KM20L2 colon): > 100 µM
TGI (RXF-631 renal): > 100 µM
TGI (SNB-78 CNS): 51.5 µM

CN1C(=O)C(=O)c2cc3c(c4c2c1cc1ccccc14)OCO3
TGI (DMS 114 small cell lung): > 100 µM
TGI (DMS 273 small cell lung): > 100 µM
TGI (KM20L2 colon): > 100 µM
TGI (SNB-78 CNS): > 100 µM
TGI (XF 498 CNS): > 100 µM

Cc1cc(CC(C)CC(C)(C)C)n(O)c(=O)c1 (stereo not given) (tested in a mixture with another compound)
GI50 (BT-549 breast): 0.351 µM
TGI (BT-549 breast): 3.25 µM
GI50 (T-47D breast): 0.725 µM
TGI (T-47D breast): > 43.6 µM

O=S1Nc2c(Cl)cc(Cl)c3c(Cl)cc(Cl)c(c23)N1
TGI (DMS 114 small cell lung): > 100 µM
TGI (DMS 273 small cell lung): > 100 µM
TGI (KM20L2 colon): > 100 µM
TGI (RXF-631 renal): > 100 µM

COc1cccc(C2c3cc4c(cc3OC(N3CCCC3)C2C)OCO4)c1O (stereo not given)
TGI (BT-549 breast): > 43 µM
TGI (MDA-N): 4.38 µM
TGI (T-47D breast): > 94.9 µM

O=C(O)C(Cl)(c1ccccc1)c1ccccc1
TGI (BT-549 breast): > 100 µM
TGI (MDA-N): > 100 µM
TGI (T-47D breast): > 100 µM

O=C(OCc1ncc(-c2ccc(C(F)(F)F)cc2)c(NC2CCCCCC2)n1)c1c(F)c(F)c(F)c(F)c1F
GI50 (BT-549 breast): 9 µM
TGI (BT-549 breast): 27.1 µM
GI50 (T-47D breast): 1.97 µM
TGI (T-47D breast): 3.99 µM

Cc1cc(N2CCSCC2)nc(NC2CCCC(Nc3ccnc4cc(Cl)ccc34)C2)n1 (stereo not given)
GI50 (BT-549 breast): 1.71 µM
TGI (BT-549 breast): 3.79 µM
GI50 (T-47D breast): 2.41 µM
TGI (T-47D breast): 5.9 µM

CC(C)(C)CC(C)(C)NCc1cc(C(C)(C)C)cc(CNC(C)(C)CC(C)(C)C)c1O
GI50 (BT-549 breast): 4.15 µM
TGI (BT-549 breast): 14.9 µM
GI50 (T-47D breast): 2.09 µM
TGI (T-47D breast): 5.14 µM

CCOc1cccc2ccc[n+](CC)c12
TGI (DMS 114 small cell lung): > 100 µM
TGI (DMS 273 small cell lung): > 100 µM
TGI (KM20L2 colon): > 100 µM
TGI (RXF-631 renal): > 100 µM
TGI (XF 498 CNS): > 100 µM

Cc1cc(C)c(NC(=S)NC(=O)c2ccccc2)cc1C
TGI (BT-549 breast): > 100 µM
TGI (MDA-N): > 100 µM
TGI (T-47D breast): > 100 µM

COc1cccc(/C=C/C(=O)c2ccc(Cl)cc2Cl)c1
GI50 (BT-549 breast): 11 µM
TGI (BT-549 breast): 22.4 µM

OCC(O)c1nc2ccc3[nH]ncc3c2c2c1CCCC2 (stereo not given)
GI50 (BT-549 breast): 0.934 µM
TGI (BT-549 breast): 2.2 µM
GI50 (T-47D breast): 1.6 µM
TGI (T-47D breast): > 50 µM

O=c1[nH]c2cc(Cl)ccc2nc1/C(=N\O)C(O)c1ccc([N+](=O)[O-])cc1 (stereo not given)
TGI (DMS 114 small cell lung): > 100 µM
TGI (DMS 273 small cell lung): > 100 µM
TGI (KM20L2 colon): > 100 µM
TGI (XF 498 CNS): > 100 µM

COC(=O)Cc1ccc(Oc2cnc3cc(F)c(F)cc3n2)cc1
GI50 (BT-549 breast): > 100 µM
TGI (BT-549 breast): > 100 µM
